How the values were obtained:
human 17β-HSD 7 = biological target: T1, human 17β-HSD 7 (Homo sapiens, UniProt P56937); assay: In vitro enzymatic activity, recombinant human 17β-HSD 7 (estrone reduction); assay type: biochemical; conditions: 2 µM compound, 15 nM 3H-estrone, NADPH, pH 6.6, read-out: Observed % inhibition
T1 construct: made in house; host or cells: E.coli BL21 DE3 Codon Plus RP
T1 sequence (P56937 1-341): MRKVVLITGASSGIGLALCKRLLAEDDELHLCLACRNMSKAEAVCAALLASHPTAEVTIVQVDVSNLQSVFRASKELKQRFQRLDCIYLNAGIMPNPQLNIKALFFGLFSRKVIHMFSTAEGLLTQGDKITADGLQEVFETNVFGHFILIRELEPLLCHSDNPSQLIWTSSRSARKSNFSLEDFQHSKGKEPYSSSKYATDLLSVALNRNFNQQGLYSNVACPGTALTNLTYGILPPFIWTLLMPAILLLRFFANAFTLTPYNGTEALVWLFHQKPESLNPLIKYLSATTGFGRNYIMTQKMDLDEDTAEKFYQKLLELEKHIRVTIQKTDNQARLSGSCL
Excerpt: (§1) Full length cDNAs of several 17β-HSDs type 1 originating from different species were cloned either into the pQE30 vector (human 17β-HSD 1, coding for acc. no. NP_000404) for expression as His-Tag protein or into a modified pGex-2T vector [63] (mouse 17β-HSD 1, acc. no. NP_034605; rat 17β-HSD 1, acc. no. NP_036983; marmoset 17β-HSD 1, acc. no. AAG01115; porcine 17β-HSD 1, acc. no. NP_001121944) for expression as GST-fusion proteins. The marmoset 17β-HSD 1 enzyme sequence was updated by the missing N-terminal part (AF272013) and the new porcine sequence was submitted to GenBank (NP_001121944). Human 17β-HSDs 2, 4, 5 (AKR1C3, the latter kindly provided by Dr. T. Penning) and 7 were all cloned into the modified pGEX-2T vector. For 17β-HSD 4 only the SDR-domain converting the steroids was subcloned. Plasmids were transformed into E.coli BL21 DE3 Codon Plus RP (Stratagene) and enzyme expression was induced by 0.5 mM IPTG. After 4h incubation at 37°C with continuous shaking bacteria were pelleted by centrifugation at 10.000×g. Pellets were stored until use at −20°C.
(§2) The bacteria containing recombinant enzymes were resuspended in PBS and enzymatic assays were performed in 100 mM sodium phosphate buffer at pH 6.6 for the reductive reaction and at pH 7.7 for the oxidative reaction. […] All substrates were purchased from NEN/Perkin Elmer. The cofactors NADPH (Sigma; for reductive reactions) and NAD^+ (Serva, for oxidative reactions) were used at final concentrations of 0.5 mg/ml. […] The incubation at 37°C was stopped with 0.21 M ascorbic acid in methanol∶acetic acid 99∶1 (v∶v) after the time needed to convert approximately 30% of the substrate in a control assay with 1% DMSO, without inhibitor candidates. […] The solvent used was acetonitrile∶water (43∶57, v∶v) at a flow rate of 1 ml/min. Radioactivity was detected by online-scintillation counting (Berthold LB506D) after mixing with ReadyFlowIII (Beckman). Conversion was calculated from integration of substrate and product peaks. […] All assays were run in duplicates of two independent experiments and mean values are reported. The IC50 values were determined by the One Ligand Binding model of SigmaPlot kinetics module.

human 17β-HSD 2 = biological target: T2, human 17β-HSD 2 (Homo sapiens, UniProt P37059); assay: In vitro enzymatic activity, recombinant human 17β-HSD 2 (estradiol oxidation); assay type: biochemical; conditions: 2 µM compound, 21 nM 3H-estradiol, NAD+, pH 7.7, read-out: Observed % inhibition
T2 construct: made in house; host or cells: E.coli BL21 DE3 Codon Plus RP
T2 sequence (P37059 1-387): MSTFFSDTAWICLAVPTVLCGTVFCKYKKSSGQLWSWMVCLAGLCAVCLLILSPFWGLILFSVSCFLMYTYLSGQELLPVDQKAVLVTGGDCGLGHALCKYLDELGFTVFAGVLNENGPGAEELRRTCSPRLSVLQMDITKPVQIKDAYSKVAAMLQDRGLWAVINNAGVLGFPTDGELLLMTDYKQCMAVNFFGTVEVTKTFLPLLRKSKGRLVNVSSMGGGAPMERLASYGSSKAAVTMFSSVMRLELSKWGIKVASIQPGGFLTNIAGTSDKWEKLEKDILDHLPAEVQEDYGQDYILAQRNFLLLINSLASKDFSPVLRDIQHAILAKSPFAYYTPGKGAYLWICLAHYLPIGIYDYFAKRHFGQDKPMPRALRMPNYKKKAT
Excerpt: as §1, §2

[1] = test system: 17β-HSD 1 orthologs of five species; assay: In vitro enzymatic activity, 17β-HSD 1 orthologs of five species taken together; assay type: biochemical, human, marmoset, mouse, pig, rat; conditions: average over the 17β-HSD 1 orthologs of the species; 2 µM compound
rat 17β-HSD 1 = biological target: T3, rat 17β-HSD 1 (Rattus norvegicus, UniProt P51657); assay: In vitro enzymatic activity, recombinant rat 17β-HSD 1; assay type: biochemical; conditions: 2 µM compound, 15 nM 3H-estrone, read-out: Observed % inhibition
T3 construct: Full length cDNAs of several 17β-HSDs type 1 originating from different species were cloned; made in house; host or cells: E.coli BL21 DE3 Codon Plus RP
T3 sequence (P51657 1-344): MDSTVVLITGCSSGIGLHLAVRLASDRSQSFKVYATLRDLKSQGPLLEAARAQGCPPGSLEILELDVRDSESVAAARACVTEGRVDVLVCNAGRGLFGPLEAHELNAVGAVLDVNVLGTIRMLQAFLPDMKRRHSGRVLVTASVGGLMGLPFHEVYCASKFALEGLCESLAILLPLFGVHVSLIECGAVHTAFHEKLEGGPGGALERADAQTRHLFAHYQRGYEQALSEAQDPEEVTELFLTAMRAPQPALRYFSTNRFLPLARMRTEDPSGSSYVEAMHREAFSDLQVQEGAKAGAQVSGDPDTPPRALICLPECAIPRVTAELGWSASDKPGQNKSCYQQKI
Excerpt: as §1, §2

human 17β-HSD 4 = biological target: T4, human 17β-HSD 4 (Homo sapiens, UniProt P51659); assay: In vitro enzymatic activity, recombinant human 17β-HSD 4 SDR-domain (estradiol oxidation); assay type: biochemical; conditions: 2 µM compound, 21 nM 3H-estradiol, NAD+, pH 7.7
T4 construct: For 17β-HSD 4 only the SDR-domain converting the steroids was subcloned; made in house; host or cells: E.coli BL21 DE3 Codon Plus RP
T4 sequence (P51659 1-305 limits assumed): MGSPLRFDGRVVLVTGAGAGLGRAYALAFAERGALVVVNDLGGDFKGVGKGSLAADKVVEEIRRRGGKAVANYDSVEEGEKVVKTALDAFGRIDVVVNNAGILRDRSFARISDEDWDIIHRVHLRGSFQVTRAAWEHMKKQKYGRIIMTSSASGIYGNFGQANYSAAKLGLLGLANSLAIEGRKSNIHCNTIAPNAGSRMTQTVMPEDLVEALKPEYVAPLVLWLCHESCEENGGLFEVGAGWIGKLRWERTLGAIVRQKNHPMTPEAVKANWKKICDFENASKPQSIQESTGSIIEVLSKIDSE
Excerpt: as §1, §2

SMILES | inhibition at 2 µM (human 17β-HSD 7) [%] | inhibition at 2 µM (human 17β-HSD 2) [%] | Observed % inhibition, average [1] [%] | inhibition at 2 µM (rat 17β-HSD 1) [%] | Observed % inhibition (human 17β-HSD 4) [%]
C[C@]12CC[C@@H]3c4ccc(O)cc4CC[C@H]3[C@@H]1C[C@H](CC(=O)NCc1cccnc1)C2=O [Compound 5, reference compound] | 0 | -3.2 | 48.4 | -2.4 | 5.6
Cc1cnc(NC(=O)CC[C@@H]2CC(=O)[C@@]3(C)CC[C@@H]4c5ccc(O)cc5CC[C@H]4[C@H]23)s1 [Compound 3] | -9 | 18.6 | 66.7 | 5.3 | 2.1
C[C@]12CC[C@@H]3c4ccc(O)cc4CC[C@H]3[C@@H]1[C@@H](CNC(=O)c1ccc(F)cc1)CC2=O [Compound 1] | -3.6 | -4.3 | 42.1 | 47.1 | 7.2
COc1ccc(-c2cn(CCC[C@H]3CC(=O)[C@@]4(C)CC[C@@H]5c6ccc(O)cc6CC[C@H]5[C@H]34)nn2)cc1 [Compound 4] | -5.8 | -0.3 | 57.0 | 19.4 | 5.5
C[C@]12CC[C@@H]3c4ccc(O)cc4CC[C@H]3[C@@H]1[C@@H](CCCC(=O)N1CCOCC1)CC2=O [Compound 2] | -7.1 | 16.7 | 52.2 | 40.3 | 0.1

From paper PMC2882332, “Species Used for Drug Testing Reveal Different Inhibition Susceptibility for 17beta-Hydroxysteroid Dehydrogenase Type 1” (PLoS ONE, 2010)
